Reference: patent US7875599B2, “C-17-heteroaryl steroidal CYP17 inhibitors/antiandrogens, in vitro biological activities, pharmacokinetics and antitumor activity” (University of Maryland, priority 2005, dated 2011)

Columns and labels:
CYP17 = target: T1, CYP17 (Homo sapiens, UniProt P05093); test: UV-vis difference spectroscopy, binding to heme iron of CYP17
T1 sequence (P05093 1-508): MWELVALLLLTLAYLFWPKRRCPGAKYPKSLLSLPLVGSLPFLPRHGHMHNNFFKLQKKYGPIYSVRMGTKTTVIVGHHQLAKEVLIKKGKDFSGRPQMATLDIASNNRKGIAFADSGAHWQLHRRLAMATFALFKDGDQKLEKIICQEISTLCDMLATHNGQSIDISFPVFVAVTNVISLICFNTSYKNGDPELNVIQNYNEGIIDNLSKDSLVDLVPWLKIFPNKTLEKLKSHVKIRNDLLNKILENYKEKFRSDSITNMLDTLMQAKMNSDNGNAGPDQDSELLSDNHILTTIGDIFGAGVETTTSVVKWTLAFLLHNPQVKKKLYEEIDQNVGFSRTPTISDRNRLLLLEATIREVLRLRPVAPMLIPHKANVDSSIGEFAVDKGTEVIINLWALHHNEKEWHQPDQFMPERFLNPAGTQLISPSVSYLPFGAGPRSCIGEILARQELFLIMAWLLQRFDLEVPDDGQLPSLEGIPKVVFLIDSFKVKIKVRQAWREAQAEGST

[1] = system: LNCaP mutant AR-mediated transcription; test: Luciferase transactivation assay in LNCaP cells transfected with ARR2-Luc; conditions: 18 h
Procedure: Luciferase Transactivation Assay: Transcriptional activation assay is carried out as described previously by Kim et al., above, with minor modifications. […] The pRL-null (Promega) is used as the internal control. […] Luciferase activities are measured in triplicates by using dual luciferase assay system according to the manufacturer's instruction (Promega).
The bars represent the mean light units [counts per second (cps)/unit protein, i.e., relative luciferase activity] in triplicate wells from three separate experiments.

Structure (SMILES): C[C@]12CC[C@H](O)CC1=CC[C@@H]1[C@@H]2CC[C@]2(C)C(n3cnc4ccccc43)=CC[C@@H]12 [Compound 5, 3β-Hydroxy-17-(1H-benzimidazol-1-yl)androsta-5,16-diene]
- type of difference spectrum induced (CYP17): type II difference spectrum
- effect on luciferase activity, compound alone ([1]; 0.1 and 10.0 μM, without DHT): no effect
- effect on luciferase expression induced by 1.0 nM DHT ([1]; with 1.0 nM DHT): decreased in a concentration-dependent manner
